Laboratory results as given in US20230390411A1, “CONJUGATE AND USE THEREOF” (NANJING CHEMPION BIOTECHNOLOGY CO., LTD., priority 2021, published 2023).
Starred links: 1 amine or outer side, 2 acyl side, 3 side chain; linkers in the order of their positions; H or OH if unused. Non-standard residues stand in square brackets, D forms with d. Residues, ends and D or L forms follow the SMILES beside them. *: point of attachment. Exatecan = CC[C@@]1(O)C(=O)OCc2c1cc1n(c2=O)Cc2c-1nc1cc(F)c(C)c3c1c2[C@@H](N*)CC3; Dolaproine = CO[C@@H]([C@@H]1CCCN1)[C@@H](C)C(=O)O; Hexanoyl(6-maleimido) = O=C1C=CC(=O)N1CCCCCC(=O)*; Dil = CC[C@H](C)[C@H](NC)[C@@H](CC(=O)O)OC; NHCH2OCH2CO = O=C(COCN[*:1])[*:2]; X1 = C[C@@H](N*)[C@@H](O)c1ccccc1; NMeV = CN[C@H](C(=O)O)C(C)C

Tested on: NCI-N87 cells
Experiment: Cytotoxicity assay (CellTiter-Glo)
Assay type: cell-based
Conditions: 6 days, max 50 nM
Method: When the confluence of cultured NCI-N87 cells reached 70-90%, the cells were digested with trypsin. The trypsin was removed by centrifugation. […] The plate was incubated in a 5% CO2 incubator at 37° C. for 6 days. After the incubation was completed, the cell viability was detected with CellTiter-Glo reagent (Promega, G7573), and the specific cell viability value was measured by a multifunctional microplate reader (PerkinElmer, EnVision).

Row | Compound | Max Cytotoxicity % | IC50 (Homo sapiens, 144 h) | IC50
1 | CC[C@@]1(O)C(=O)OCc2c1cc1n(c2=O)Cc2c-1nc1cc(F)c(C)c3c1c2[C@@H](NC(=O)COCNC(=O)CNC(=O)[C@H](Cc1ccccc1)NC(=O)CNC(=O)CNC(=O)CCCCCN1C(=O)C=CC1=O)CC3 [DS8201 scaffold, Deruxtecan] ({Hexanoyl(6-maleimido)}-GGFG[NHCH2OCH2CO]-Exatecan) | 9.38% | – | –
2 | C=C1C[C@@H]2CC[C@@]34C[C@H]5O[C@H]6[C@@H](O3)[C@H]3O[C@H](CC[C@@H]3O[C@H]6[C@H]5O4)CC(=O)C[C@@H]3[C@@H](OC)[C@@H](C[C@H](O)CN)O[C@H]3C[C@H]3O[C@@H](CC[C@@H]1O2)C[C@@H](C)C3=C [Eribulin, eribulin] | 93.99% | 0.22 nM | –
3 | CC[C@H](C)[C@@H]([C@@H](CC(=O)N1CCC[C@H]1[C@H](OC)[C@@H](C)C(=O)N[C@H](C)[C@@H](O)c1ccccc1)OC)N(C)C(=O)[C@@H](NC(=O)[C@@H](NC)C(C)C)C(C)C [MMAE, monomethyl auristatin E] (H-[NMeV]V[Dil][Dolaproine]-X1) | 93.50% | – | 0.13 nM
